Measurements: PubChem BioAssay (NCI)
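Step 1: Grow cells in 96-well plates. Step 2: Expose to compound for 48 hours at 5 concentrations. Step 3: Interpolate endpoints linearly; if unreached, use highest concentration. GI50 = concentration required for 50% inhibition of growth. TGI marks complete inhibition of growth.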

Legend:
Test in all cases: inhibition of tumour cell growth, NCI panel, 48 h
[1] = test system: OVCAR-5 ovarian
[2] = test system: CCRF-CEM leukemia
[3] = test system: NCI/ADR-RES ovarian
[4] = test system: UO-31 renal
[5] = test system: OVCAR-4 ovarian
[6] = test system: OVCAR-3 ovarian
[7] = test system: OVCAR-8 ovarian
[8] = test system: MOLT-4 leukemia
[9] = test system: SK-MEL-5 melanoma
[10] = test system: 786-0 renal
[11] = test system: SK-MEL-2 melanoma
[12] = test system: TK-10 renal
[13] = test system: KM12 colon
[14] = test system: UACC-257 melanoma
[15] = test system: COLO 205 colon
[16] = test system: MDA-MB-435
[17] = test system: HS 578T breast
[18] = test system: MCF7 breast
[19] = test system: SNB-75 CNS
[20] = test system: LOX IMVI melanoma
[21] = test system: HOP-62 NSCLC
[22] = test system: A498 renal
[23] = test system: SW-620 colon
[24] = test system: RXF 393 renal
[25] = test system: HOP-92 NSCLC
[26] = test system: HCT-116 colon
[27] = test system: SF-295 CNS
[28] = test system: RPMI-8226 leukemia
[29] = test system: HCT-15 colon
[30] = test system: SK-OV-3 ovarian
[31] = test system: BT-549 breast
[32] = test system: CAKI-1 renal
[33] = test system: T-47D breast
[34] = test system: U251 CNS
[35] = test system: UACC-62 melanoma
[36] = test system: HT29 colon
[37] = test system: K-562 leukemia
[38] = test system: SR leukemia
[39] = test system: SK-MEL-28 melanoma
[40] = test system: SN12C renal
[41] = test system: DU-145 prostate
[42] = test system: NCI-H522 lung
[43] = test system: SF-268 CNS
[44] = test system: NCI-H226 lung
[45] = test system: HL-60(TB) leukemia
[46] = test system: M14 melanoma
[47] = test system: SNB-19 CNS
[48] = test system: NCI-H460 lung
[49] = test system: IGROV1 ovarian
[50] = test system: SF-539 CNS
[51] = test system: MDA-MB-231 breast
[52] = test system: PC-3 prostate
[53] = test system: MALME-3M melanoma
[54] = test system: EKVX NSCLC
[55] = test system: NCI-H23 lung
[56] = test system: ACHN renal
[57] = test system: HCC-2998 colon
[58] = test system: A549 NSCLC

CC1(C)CC[C@]2(C(=O)O)CC[C@]3(C)C(=CC[C@@H]4[C@@]5(C)C/C(=C/c6ccco6)C(=O)C(C)(C)[C@@H]5CC[C@]43C)[C@@H]2C1
GI50 [1]: 6.15 µM | TGI [1]: 32.5 µM | GI50 [2]: 3.16 µM | TGI [2]: 31.6 µM | GI50 [3]: 3.64 µM | TGI [3]: 44.5 µM | GI50 [4]: 2.39 µM | TGI [4]: 11.6 µM | GI50 [5]: 3.76 µM | TGI [5]: 41.1 µM | GI50 [6]: 2.9 µM | TGI [6]: 9.61 µM | GI50 [7]: 4.29 µM | TGI [7]: > 100 µM | GI50 [8]: 1.04 µM | TGI [8]: > 100 µM | GI50 [9]: 2.51 µM | TGI [9]: 8.74 µM | GI50 [10]: 4.12 µM | TGI [10]: 26.5 µM | GI50 [11]: 2.99 µM | TGI [11]: 11.4 µM | GI50 [12]: 6.11 µM | TGI [12]: 89.8 µM | GI50 [13]: 2.77 µM | TGI [13]: 11.6 µM | GI50 [14]: 6.24 µM | TGI [14]: 35.6 µM | GI50 [15]: 2.02 µM | TGI [15]: 3.89 µM | GI50 [16]: 3.63 µM | TGI [16]: 14.1 µM | GI50 [17]: 5.19 µM | TGI [17]: 54.1 µM | GI50 [18]: 3.18 µM | TGI [18]: 23.5 µM | GI50 [19]: 3.04 µM | TGI [19]: 54.6 µM | GI50 [20]: 2.46 µM | TGI [20]: 6.77 µM | GI50 [21]: 3.75 µM | TGI [21]: 14.9 µM | GI50 [22]: 6.14 µM | TGI [22]: 45.6 µM | GI50 [23]: 3.82 µM | TGI [23]: 18.2 µM | GI50 [24]: 3.3 µM | TGI [24]: 13.6 µM | GI50 [25]: 2.69 µM | TGI [25]: 12.2 µM | GI50 [26]: 2.9 µM | TGI [26]: 12 µM | GI50 [27]: 3.22 µM | TGI [27]: 18.1 µM | GI50 [28]: 2.22 µM | TGI [28]: 10.7 µM | GI50 [29]: 2.5 µM | TGI [29]: 13.4 µM | GI50 [30]: 4.22 µM | TGI [30]: 79.4 µM | GI50 [31]: 4.01 µM | TGI [31]: 23.4 µM | GI50 [32]: 2.72 µM | TGI [32]: 15.7 µM | GI50 [33]: 3.23 µM | TGI [33]: 48.4 µM | GI50 [34]: 3.45 µM | TGI [34]: 15 µM | GI50 [35]: 3.06 µM | TGI [35]: 12.8 µM | GI50 [36]: 3.14 µM | TGI [36]: 14.1 µM | GI50 [37]: 3.37 µM | TGI [37]: > 100 µM | GI50 [38]: 4.04 µM | TGI [38]: 52.4 µM | GI50 [39]: 4.35 µM | TGI [39]: 17.4 µM | GI50 [40]: 3.37 µM | TGI [40]: 19.2 µM | GI50 [41]: 4.02 µM | TGI [41]: 15.1 µM | GI50 [42]: 3.22 µM | TGI [42]: 24.3 µM | GI50 [43]: 4.03 µM | TGI [43]: 23 µM | GI50 [44]: 3.42 µM | TGI [44]: 19.5 µM | GI50 [45]: 2.55 µM | TGI [45]: 6.84 µM | GI50 [46]: 4.51 µM | TGI [46]: 21.6 µM | GI50 [47]: 4.02 µM | TGI [47]: > 100 µM | GI50 [48]: 3.38 µM | TGI [48]: 12.2 µM | GI50 [49]: 4.48 µM | TGI [49]: 22.2 µM | GI50 [50]: 3.34 µM | TGI [50]: 11.6 µM | GI50 [51]: 3.49 µM | TGI [51]: 19.5 µM | GI50 [52]: 2.62 µM | TGI [52]: 14.9 µM | GI50 [53]: 3.99 µM | TGI [53]: 16.6 µM | GI50 [54]: 3.62 µM | TGI [54]: 31.1 µM | GI50 [55]: 3.13 µM | TGI [55]: 17.6 µM | GI50 [56]: 2.89 µM | TGI [56]: 11.1 µM | GI50 [57]: 3.15 µM | TGI [57]: 12.2 µM | GI50 [58]: 2.6 µM | TGI [58]: 23.5 µM
